Reference: US6355799B1, “Substituted benzene compounds, process for their preparation, and herbicidal and defoliant compositions containing them” (ISK Americas Incorporated, priority 1997, dated 2002)

What was measured:
Format in all cases: in vivo
[1] = system: redroot pigweed (Amaranthus retroflexus, AMARE); test: Pre-emerge test, greenhouse herbicide activity screening; conditions: phytotoxicity rating 0-100, 14 days after application
In short: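 Compounds in acetone were track-sprayed at 15-1000 g ai/ha (187 l/ha) on sandy loam pots: pre-emerge one day after seeding, post-emerge at 2-3 leaf stage with 0.25% v/v non-ionic surfactant. Phytotoxicity was rated 14 days later on a 0 (no damage) to 100 (complete death) scale.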

[2] = system: green foxtail (Setaria viridis, SETVI); test: as above; conditions: phytotoxicity rating 0-100, 14 days after application
Text: (§1) A standard greenhouse herbicide activity screening system was used to evaluate the herbicidal efficacy and crop safety of these test compounds. Seven broadleaf weed species including redroot pigweed (Amaranthus retroflexus, AMARE, velvetleaf (Abutilon theophrasti, ABUTH), sicklepod (Cassia obtusifolia, CASOB), ivyleaf morningglory (Ipomoea hederacea, IPOHE), lambsquarters (Chenopodium album, CHEAL), common ragweed (Ambrosia artemisizfolia L., AMBEL), and cocklebur (Xanthium strumarium, XANST) were used as test species. Four grass weed species including green foxtail (Setaria viridis, SETVI), barnyardgrass (Echinochloa crus-galli, ECHCG), johnsongrass (Sorghum halepense, SORHA), and large crabgrass (Digitaria sanguinalis, DIGSA) were also used. In addition, three crop species, field corn (Zea mays L., var. Dekalb 535, CORN), soybean (Glycine max L., var. Pella 86, SOY), and is upland rice (Oryza sp., var. Tebonnet, RICE) were included.
(§2) All plants were grown in 10 cm square plastic pots which were filled with a sandy loam soil mix. For pre-emerge tests, seeds were planted one day prior to application of the test compounds. For post-emerge tests, seeds were planted 8-21 days prior to the test to allow emergence and good foliage development prior to application of the test substances. At the time of the post-emerge application, plants of all species were usually at the 2-3 leaf stage of development.
(§3) All test compounds Were dissolved in acetone and applied to the test units in a volume of 187 l /ha. Test materials were applied at rates ranging from 15 g ai/ha to 1000 g ai/ha using a track sprayer equipped with a TJ8001E even flow flat fan spray nozzle. Plants were arranged on a shelf so that the top of the canopy (post-emerge) or top of the soil surface (pre-emerge) was 40-45 cm below the nozzle. Pressurized air was used to force the test solution through the nozzle as it was mechanically advanced (via electrically driven chain drive) over the top of all test plants/pots. This application simulates a typical commercial field herbicide application.
(§4) In the post-emerge test, a commercial non-ionic surfactant was also included (0.25% v/v) to enhance wetting of the leaf surfaces of target plants. Immediately after application, test units of the pre-emerge applications were watered at the soil surface to incorporate the test materials. Subsequently, these test units were bottom-watered. Post-emerge test units were always bottom-watered.
(§5) At 14 days after application of the test materials, phytotoxicity ratings were recorded. A rating scale of 0-100 was used as previously described in Research Methods in Weed Science, 2nd edition, B. Truelove, Ed., Southern Weed Science Society, Auburn University, Auburn, Ala. 1977. Briefly, “0” corresponds to no damage and “100” corresponds to complete death of all plants in the test unit. This scale was used both to determine efficacy against weed species and damage to crop species. Herbicide activity data for various compounds of this invention, which are shown by compound No. in Tables 1-8, are shown in Tables 11 and 12.

[3] = system: ivyleaf morningglory (Ipomoea hederacea, IPOHE); test: as above; conditions: phytotoxicity rating 0-100, 14 days after application
Text: as §1, §2, §3, §4, §5

[4] = system: velvetleaf (Abutilon theophrasti, ABUTH); test: as above; conditions: phytotoxicity rating 0-100, 14 days after application
Text: as §1, §2, §3, §4, §5

[5] = system: lambsquarters (Chenopodium album, CHEAL); test: as above; conditions: phytotoxicity rating 0-100, 14 days after application
Text: as §1, §2, §3, §4, §5

[6] = system: barnyardgrass (Echinochloa crus-galli, ECHCG); test: as above; conditions: phytotoxicity rating 0-100, 14 days after application
Text: as §1, §2, §3, §4, §5

[7] = system: sicklepod (Cassia obtusifolia, CASOB); test: as above; conditions: phytotoxicity rating 0-100, 14 days after application
Text: as §1, §2, §3, §4, §5

[8] = system: large crabgrass (Digitaria sanguinalis, DIGSA); test: as above; conditions: phytotoxicity rating 0-100, 14 days after application
Text: as §1, §2, §3, §4, §5

[9] = system: green foxtail (Setaria viridis, SETVI); test: Post-emerge test, greenhouse herbicide activity screening; conditions: post-emerge, 14 days after application, rating scale 0-100
Text: as §1, §2, §3, §4, §5

[10] = system: ivyleaf morningglory (Ipomoea hederacea, IPOHE); test: as above; conditions: post-emerge, 14 days after application, rating scale 0-100
Text: as §1, §2, §3, §4, §5

[11] = system: velvetleaf (Abutilon theophrasti, ABUTH); test: as above; conditions: post-emerge, 14 days after application, rating scale 0-100
Text: as §1, §2, §3, §4, §5

[12] = system: lambsquarters (Chenopodium album, CHEAL); test: as above; conditions: post-emerge, 14 days after application, rating scale 0-100
Text: as §1, §2, §3, §4, §5

[13] = system: barnyardgrass (Echinochloa crus-galli, ECHCG); test: as above; conditions: post-emerge, 14 days after application, rating scale 0-100
Text: as §1, §2, §3, §4, §5

[14] = system: redroot pigweed (Amaranthus retroflexus, AMARE); test: as above; conditions: post-emerge, 14 days after application
Text: as §1, §2, §3, §4, §5

[15] = system: sicklepod (Cassia obtusifolia, CASOB); test: as above; conditions: post-emerge, 14 days after application, rating scale 0-100
Text: as §1, §2, §3, §4, §5

[16] = system: large crabgrass (Digitaria sanguinalis, DIGSA); test: as above; conditions: post-emerge, 14 days after application, rating scale 0-100
Text: as §1, §2, §3, §4, §5

[17] = system: upland rice (Oryza sp., var. Tebonnet, RICE); test: Pre-emerge test, crop safety; conditions: crop damage rating 0-100, 14 days after application
In short: (§6)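 Fourteen days after spraying, crop and weed injury was graded visually from 0, no effect, to 100, every plant dead. Test substances were dissolved in acetone and applied at 15–1000 g ai/ha with a flat-fan nozzle. Application was either pre-emergence, one day after sowing, or post-emergence at the 2–3 leaf stage.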

[18] = system: field corn (Zea mays L., var. Dekalb 535, CORN); test: Pre-emerge test, crop safety; conditions: crop damage rating 0-100, 14 days after application
In short: as §6

[19] = system: upland rice (Oryza sp., var. Tebonnet, RICE); test: Post-emerge test, crop safety; conditions: post-emerge, 14 days after application, rating scale 0-100
In short: (§7)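 Rating: 0–100 visual injury, 14 DAA. Application: acetone, 187 l/ha, 15–1000 g ai/ha, flat-fan track sprayer with nozzle 40–45 cm above soil or canopy. Post-emerge runs used 0.25% v/v surfactant on 2–3 leaf plants.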

[20] = system: field corn (Zea mays L., var. Dekalb 535, CORN); test: Post-emerge test, crop safety; conditions: post-emerge, 14 days after application, rating scale 0-100
In short: as §7

COc1c(Cl)cc(F)c(-n2c(=O)cc(C(F)(F)F)n(C)c2=O)c1NC(=O)OCc1cc(C)ccc1C [4-38]
Pre-emerge Herbicidal Activity AMARE ([1]; 63 g ai/ha): 100
Pre-emerge Herbicidal Activity AMARE ([1]; 250 g ai/ha): 100
Pre-emerge Herbicidal Activity SETVI ([2]; 63 g ai/ha): 100
Pre-emerge Herbicidal Activity SETVI ([2]; 250 g ai/ha): 100
Pre-emerge Herbicidal Activity IPOHE ([3]; 63 g ai/ha): 60
Pre-emerge Herbicidal Activity IPOHE ([3]; 250 g ai/ha): 50
Pre-emerge Herbicidal Activity ABUTH ([4]; 63 g ai/ha): 80
Pre-emerge Herbicidal Activity ABUTH ([4]; 250 g ai/ha): 100
Pre-emerge Herbicidal Activity CHEAL ([5]; 63 g ai/ha): 100
Pre-emerge Herbicidal Activity CHEAL ([5]; 250 g ai/ha): 100
Pre-emerge Herbicidal Activity ECHCG ([6]; 63 g ai/ha): 30
Pre-emerge Herbicidal Activity ECHCG ([6]; 250 g ai/ha): 60
Pre-emerge Herbicidal Activity CASOB ([7]; 63 g ai/ha): 30
Pre-emerge Herbicidal Activity CASOB ([7]; 250 g ai/ha): 60
Pre-emerge Herbicidal Activity DIGSA ([8]; 63 g ai/ha): 95
Pre-emerge Herbicidal Activity DIGSA ([8]; 250 g ai/ha): 100
phytotoxicity rating SETVI ([9]; 63 g ai/ha): 60
phytotoxicity rating SETVI ([9]; 250 g ai/ha): 80
phytotoxicity rating IPOHE ([10]; 63 g ai/ha): 100
phytotoxicity rating IPOHE ([10]; 250 g ai/ha): 100
phytotoxicity rating ABUTH ([11]; 63 g ai/ha): 100
phytotoxicity rating ABUTH ([11]; 250 g ai/ha): 100
phytotoxicity rating CHEAL ([12]; 63 g ai/ha): 100
phytotoxicity rating CHEAL ([12]; 250 g ai/ha): 100
phytotoxicity rating ECHCG ([13]; 63 g ai/ha): 50
phytotoxicity rating ECHCG ([13]; 250 g ai/ha): 50
phytotoxicity rating AMARE ([14]; 63 g ai/ha, rating scale 0-100 (0 no damage, 100 complete death)): 100
phytotoxicity rating AMARE ([14]; 250 g ai/ha, rating scale 0-100): 100
phytotoxicity rating CASOB ([15]; 63 g ai/ha): 90
phytotoxicity rating CASOB ([15]; 250 g ai/ha): 100
phytotoxicity rating DIGSA ([16]; 63 g ai/ha): 40
phytotoxicity rating DIGSA ([16]; 250 g ai/ha): 40
Pre-emerge Herbicidal Activity RICE ([17]; 63 g ai/ha): 35
Pre-emerge Herbicidal Activity RICE ([17]; 250 g ai/ha): 60
Pre-emerge Herbicidal Activity CORN ([18]; 63 g ai/ha): 10
Pre-emerge Herbicidal Activity CORN ([18]; 250 g ai/ha): 20
phytotoxicity rating RICE (crop damage) ([19]; 63 g ai/ha): 35
phytotoxicity rating RICE (crop damage) ([19]; 250 g ai/ha): 50
phytotoxicity rating CORN (crop damage) ([20]; 63 g ai/ha): 40
phytotoxicity rating CORN (crop damage) ([20]; 250 g ai/ha): 85
